Experimental data reported in patent publication US10702507B2, “Endoparasite control agent” (THE UNIVERSITY OF TOKYO, priority 2014, dated 2020).

Test system: 1st-stage larvae of Haemonchus contortus
Assay: Test for effect on motion of larvae of Haemonchus nematode
Conditions: 20 larvae per well, 27° C./95% RH for 4 days, corrected against DMSO negative control, duplicate
Method: Test for Effect on Motion of Larvae of Haemonchus Nematode (Haemonchus contortus) The compound of the present invention was prepared as solutions in 100% DMSO at the final concentrations of 50 ppm, 5 ppm, 0.5 ppm, 0.05 ppm and 0.005 ppm. DMSO stands for dimethyl sulfoxide. A larval suspension containing 1st-stage larvae of Haemonchus contortus harvested by the Baermann technique (for example, see K. Nakazono et al., “Inclination of Baermann funnel wall and efficiency of nematode extraction” Proc. Assoc. Pl. Prot. Kyushu 33: 126-130 (1987)) was placed at a density of 20 larvae per well in a test plate, and 0.5 μL/well of the test solution containing the compound of the present invention diluted to a predetermined concentration was added to the test plate. The plate was kept under the conditions of 27° C./95% RH for 4 days. In the test, ivermectin was used for the positive control and DMSO was used for the negative control. The motor ability of the larvae was examined with an automatic analyzer equipped with an LCD camera. The inhibitory effect on the motion of the larvae in each treatment plot was corrected based on the inhibitory effect in the plot treated with DMSO only for the negative control. The EC50 value was calculated from the data on the corrected inhibitory effect on the motion of the larvae, and graded according to the criteria shown below. The test was conducted in duplicate per plot.

O=C(NCC1(c2ccc(Oc3ncc(C(F)(F)F)cc3Cl)cc2Cl)CC1)c1ccccc1C(F)(F)F [Compound 1-47]
EC50 value of corrected inhibitory effect on the motion of the larvae, graded: C or higher

O=C(NCCc1ccc(Oc2nc3ccccc3s2)cc1Cl)c1ccccc1I [Compound 1-36]
EC50 value of corrected inhibitory effect on the motion of the larvae, graded: C or higher

O=C(NCCc1ccc(-c2ccc(C(F)(F)F)cc2)cc1Cl)c1ccccc1C(F)(F)F [Compound 1-50]
EC50 value of corrected inhibitory effect on the motion of the larvae, graded: C or higher

CC(CNC(=O)c1ccccc1C(F)(F)F)c1ccc(Oc2ncc(C(F)(F)F)cc2Cl)cc1Cl (racemic) [Compound 1-41]
EC50 value of corrected inhibitory effect on the motion of the larvae, graded: C or higher

COC(CNC(=O)c1ccccc1C(F)(F)F)c1ccc(Oc2ncc(C(F)(F)F)cc2Cl)cc1Cl (racemic) [Compound 1-60]
EC50 value of corrected inhibitory effect on the motion of the larvae, graded: C or higher

O=C(NCCc1ccc(Oc2ccccc2)cc1Cl)c1ccccc1I [Compound 1-39]
EC50 value of corrected inhibitory effect on the motion of the larvae, graded: C or higher

COC(CNC(=O)c1ccccc1C(F)(F)F)c1ccc(Oc2cccnc2)cc1Cl (stereo not drawn) [Compound 1-67]
EC50 value of corrected inhibitory effect on the motion of the larvae, graded: C or higher

O=C(NCCc1ncc(-c2ccccc2)cc1Cl)c1ccccc1C(F)(F)F [Compound 2-1]
EC50 value of corrected inhibitory effect on the motion of the larvae, graded: C or higher

O=C(NCCc1ccc(Oc2ccc(C(F)(F)F)cn2)cc1Cl)c1ccccc1I [Compound 1-21]
EC50 value of corrected inhibitory effect on the motion of the larvae, graded: C or higher

O=C(NCCc1ccc(Oc2cc(Cl)nc(Cl)n2)cc1Cl)c1ccccc1C(F)(F)F [Compound 1-9]
EC50 value of corrected inhibitory effect on the motion of the larvae, graded: C or higher

CC(CNC(=O)c1ccccc1C(F)(F)F)c1ccc(-c2ccccc2)cc1Cl (racemic) [Compound 1-58]
EC50 value of corrected inhibitory effect on the motion of the larvae, graded: C or higher

CC(CNC(=O)c1ccccc1C(F)(F)F)c1ccc(Oc2ccc(C(F)(F)F)cn2)cc1Cl (racemic) [Compound 1-42]
EC50 value of corrected inhibitory effect on the motion of the larvae, graded: C or higher
